Experimental data as given in the NIST ThermoML archive (doi:10.1021/acs.jced.8b00199).

Test: molar heat capacity at constant pressure
Conditions: Liquid, Flow calorimetry

CCCCCCCC(=O)OCC [ethyl octanoate]
Conditions | molar heat capacity at constant pressure [J/K/mol]
294 K, 160 kPa | 339.59
294 K, 3020 kPa | 339.17
294.1 K, 5960 kPa | 338.74
294.1 K, 9040 kPa | 338.3
294.1 K, 12020 kPa | 337.9
294.1 K, 14980 kPa | 337.54
294.1 K, 17990 kPa | 337.13
294.1 K, 21060 kPa | 336.71
294.1 K, 23980 kPa | 336.29
303.7 K, 2940 kPa | 344.3
303.7 K, 6070 kPa | 343.83
303.8 K, 8950 kPa | 343.35
303.8 K, 12020 kPa | 342.9
303.9 K, 15040 kPa | 342.5
304 K, 18130 kPa | 342.09
304 K, 21050 kPa | 341.67
304 K, 24030 kPa | 341.18
305.6 K, 160 kPa | 344.76
314.3 K, 170 kPa | 350.6
314.3 K, 3140 kPa | 350.17
314.3 K, 6130 kPa | 349.71
314.4 K, 9110 kPa | 349.29
314.4 K, 12100 kPa | 348.89
314.4 K, 15030 kPa | 348.53
314.5 K, 18310 kPa | 348.11
314.5 K, 20910 kPa | 347.72
314.5 K, 24100 kPa | 347.25
323.8 K, 130 kPa | 355.82
323.8 K, 3030 kPa | 355.4
323.8 K, 6160 kPa | 354.96
323.8 K, 21030 kPa | 352.89
323.9 K, 9300 kPa | 354.54
323.9 K, 12120 kPa | 354.09
323.9 K, 15230 kPa | 353.71
323.9 K, 18110 kPa | 353.28
323.9 K, 24100 kPa | 352.47
333.7 K, 110 kPa | 360.49
333.7 K, 3060 kPa | 360.06
333.7 K, 6010 kPa | 359.65
333.8 K, 9110 kPa | 359.17
333.8 K, 11920 kPa | 358.75
333.8 K, 15070 kPa | 358.37
333.8 K, 18080 kPa | 357.9
333.9 K, 21120 kPa | 357.47
333.9 K, 24000 kPa | 357.06
343.5 K, 130 kPa | 365.32
343.5 K, 2950 kPa | 364.93
343.5 K, 6040 kPa | 364.48
343.5 K, 8990 kPa | 364.02
343.6 K, 12070 kPa | 363.6
343.7 K, 15050 kPa | 363.15
343.8 K, 18070 kPa | 362.7
343.8 K, 21010 kPa | 362.3
343.8 K, 24090 kPa | 361.84
353.6 K, 130 kPa | 370.06
353.6 K, 3030 kPa | 369.66
353.6 K, 6060 kPa | 369.24
353.7 K, 8990 kPa | 368.8
353.7 K, 11900 kPa | 368.4
353.8 K, 15040 kPa | 367.99
353.9 K, 18020 kPa | 367.57
354 K, 20960 kPa | 367.14
354 K, 24110 kPa | 366.72
